US12115182B2, “Adenosine A2A agonists for the treatment of cytokine storm syndrome” (priority 2021, dated 2024)
Entries after “also recorded” stand apart in the source; their conditions may differ.

Tests used:
[1] = tested on: SARS-CoV-2 strain B.1.351; assay type: in vivo, Golden Syrian hamster
[2] = Plasma levels of regadenoson in lung transplant recipients (LC-MS/MS); assay type: in vivo, human
Experimental: The peripheral blood samples for regadenoson measurement were collected at the following timepoints: 1) Prior to 1st lung reperfusion; 2) 1 hour post 1st lung perfusion; 3) 6 hours post infusion start; 4) 12 hours post infusion start; 5) 24 hours post infusion start. The blood samples were centrifuged, and the plasma samples were collected and stored at −80° C. The levels of regadenoson were determined via liquid chromatography-mass spectrometry with an improved d protocol based on our previous publication (LAU et al., J Heart Lung Transplant, (2020), 39:563-570) at The Mass Spectrometry Center at the School of Pharmacy, University of Maryland, Baltimore (detailed in supplemental methods).
Chemicals and Reagents. Regadenoson (purity 99.83%) was purchased from Selleckchem (Houston, TX, USA) and Regadenoson-d3 ((purity 99.68%) used as internal standard (IS) was obtained from Toronto Research Chemicals, (North York, ON, CT). Optima LC/MS grade water (H2O), methanol, and formic acid (FA) were purchased from Fisher Scientific (Pittsburgh, PA, USA).
Calibration Standards. 1 mg/ml stock solutions of Regadenoson and Regadenoson-d3 were prepared in Dimethyl sulfoxide (DMSO) and further working solutions to spike in plasma were prepared in methanol and water (70:30, v/v). Calibration standards (STD) in plasma ranged from 0.05 ng/ml to 50 ng/ml (8 points: 0.05, 0.1, 1, 5, 20, 30, 40, and 50 ng/ml). Quality control (QC) samples at 3 concentration levels (0.15 ng/ml, LQC; 25 ng/ml, MQC; and 45 ng/ml, HQC) were also prepared in plasma. Internal standard solution (Regadenoson-d3; 250 ng/ml) was prepared in methanol and water (70:30, v/v).
Sample Preparation. 50 μL of plasma sample (STD/QC/test sample) was added into a 2 ml centrifuge tube containing 20 μL of IS solution (250 ng/ml) and mixed well. Next, 500 μL of acetonitrile was added, shaken for 3 min at 2100 rpm, and centrifuged for 10 min at 15000 rpm. 400 μL of supernatant was transferred to glass tube and dried under a steady stream of nitrogen at 35° C. The sample was re-suspended in 100 μL of 0.1% formic acid in H2O: 0.1% formic acid in methanol (1:1 v/v) and injected (3 μl) into LC-MS/MS system.
Liquid Chromatography Tandem Mass Spectrometry (LC-MS/MS). LC-MS/MS analysis was performed on a TSO Altis Triple Stage Quadrupole Mass Spectrometer coupled to an Ultimate 3000 RS Liquid Chromatogram system (Thermo Scientific, San Jose, CA). The LC separation was performed on a BEH C18 column (2.1×50 mm, 1.7 μm) (Waters Corporations, Milford, MA) operated at 30° C. Mobile phase solvent A and B consisted of 0.1% FA in H2O and 0.1% FA in methanol, respectively. The gradient program started with 35% B; followed by a linear gradient to 50% Bin 0.7 min; maintained 50% B until 1.5 min; followed by a linear gradient back to 35% B in 2 min and maintained until 3 min. The flow rate was set at 0.22 ml/min. The retention time of Regadenoson and the IS was 1.09 min, and the total run time was 3 min.
Detection was performed in the positive-ion mode using electrospray ionization (ESI). Source parameters were as follows: spray voltage, 3500; Ion transfer tube temperature, 350; vaporizer temperature, 300; sheath gas pressure, 50; auxiliary gas pressure, 10; and sweet gas, 1. The compound parameters: collision energy (CE), and RF lens were 35 and 77 V, respectively for Regadenoson and the IS. Selected reaction monitoring (SRM) was used for mass detection with the following transitions: Regadenoson (m/z 391.1-259.2; quant) and (m/z 391.1-228.1; qual), Regadenoson-d3 (m/z 394.0-262.2; quant) and (m/z 394.0-228.2; qual). Data collection and analysis was performed by Xcalibur V 2.1 (Thermo Scientific, San Jose, CA).
Analytical parameters: The linear range is 0.05-50 ng/mL in human plasma. Samples that exceeded the upper limit of quantification were diluted 2 or 4 fold and reinjected.

[3] = tested on: lung transplant recipients; test: Regadenoson infusion in lung transplant recipients: clinical outcomes, hemodynamics, safety; assay type: in vivo
Experimental: The rational for dose selection was published in our previous publication (LAU et al., J Heart Lung Transplant, (2020), 39:563-570. We enrolled 4 additional lung transplantation patients that were treated with regadenoson at 1.44 ug/kg/hour for 12 hours. Our previous publication, infusion of regadenoson (1.44 ug/kg/hour for 12 hours) was safe in 10 lung transplantation patients. In the lung transplantation population, the median peak plasma levels of regadenoson infused were 1.68 ng/ml (range 1.2 to 1.9 ng/ml). Based on this preliminary result, we modified our protocol to a high dose infusion at the 2.88 ug/kg/hour for 12 hours in the last three lung transplantation recipients. FDA, NIH/NHLBI designated DSMB and institutional IRB approved our modification. The regadenoson infusion started at the time of skin incision, continued throughout the transplant procedure and into the immediate postoperative period for a total duration of 12 hours. Enrollment of bilateral lung transplant control patients
Primary end-points included dose-limiting toxicities and 30-day mortality. Secondary outcomes included PGD scores evaluated at 24, 48, and 72 hours, ICU length of stay, hospital length of stay, need for post-transplant extracorporeal membrane oxygenation, duration of mechanical ventilation post-operatively, and 12-month survival. Clinical parameters including blood pressure, heart rate, mean arterial pressure, pulmonary arterial pressure, were monitored and collected. Continuous variables are listed as mean and standard deviation, whereas categorical variables are presented as counts.
Statistical differences of cytokine/chemokines, heart rates and blood pressures between groups were determined by two-way ANOVA followed by Tukey's multiple comparison test (GraphPad Prism 9.0). The PGD scores were analyzed by chi-squared test. The intubation times and hospital LOS, ICU LOS were analyzed by ANOVA of log and Kruskal-Wallis. Data was reported as means±SD. P value equal or less than 0.05 was considered significant.

[4] = PI day 7, compared to control group

**Q.** What does the source list for `CNC(=O)c1cnn(-c2nc(N)c3ncn([C@@H]4O[C@H](CO)[C@@H](O)[C@H]4O)c3n2)c1` [Regadenoson]?
**A.** albumin leakage into BAL [1, 4]: slight increase; also recorded: did not significantly; plasma IL13 [1, 4]: slightly depressed; also recorded: did not significantly; time course of the disease or viral titer detected in throat swabs ([1]; RT-qPCR): did not significantly; plasma IL4 ([1]; compared to control): depressed; also recorded: did significantly; decrease in weight gain ([1]; daily weights, vs control group): did not significantly; histologic distribution or severity of lung pathology ([1]; day 7): did not significantly; plasma Transforming Growth Factor beta (TGFb) ([1]; day 7, compared to control): decreased; also recorded: did significantly; spread of virus to olfactory bulb (brain) ([1]; day 7, compared to control): decreased; also recorded: did significantly; respiratory physiology parameters (EF50, Rpef, Penh) ([1]; whole body plethysmography, PI day 7): did not significantly; median peak plasma levels of regadenoson ([2]; 1.44 ug/kg/hour for 12 hours, preliminary result before dose alteration): 1.68 ng/mL; levels of regadenoson in blood ([2]; after 24 hours post regadenoson infusion): minimal; time of peak drug level post infusion start ([2]; high dose group, 2.88 ug/kg/hr for 12 hours): 12 h; median peak plasma levels of regadenoson ([2]; high dose, 2.88 ug/kg/hr): 14.34 ng/mL; time of peak drug level post infusion start ([2]; low dose group, 1.44 ug/kg/hr for 12 hours): 6 h; median peak plasma levels of regadenoson ([2]; low dose, 1.44 ug/kg/hr): 1.30 ng/mL; PGD scores at 24 hours post transplantation ([3]; 1.44 ug/kg/h vs control patients, p=0.024): significantly improved; drug related serious adverse events or dose limiting toxicities ([3]; 14 low dose-treated (1.44 ug/kg/h) and 3 high dose-treated (2.88 ug/kg/h) recipients): no drug related serious adverse events or dose limiting toxicities were observed; PGD scores at 24 hours, 48 and 72 hours ([3]; both 1.44 and 2.88 ug/kg/h groups vs control patients): also improved when compared with control patients but did not reach significance; blood pressure, heart rate, mean arterial pressure and pulmonary arterial pressure ([3]; during regadenoson infusion for 12 hours, P>0.05): did not significantly alter; seizure ([3]; one subject, may not directly relate to regadenoson infusion): A seizure was observed at the 36 hours post regadenoson infusion in one of the subjects; hospital length of stay (LOS) and ICU LOS ([3]; vs control patients): reduced, but not significantly altered; intubation time ([3]; vs control patients): trended to decrease
